Assay results published in US20240207263A1, “SELECTIVE MODULATORS OF ATAXIA TELA[…] (ATM) KINASE AND USES THEREOF” (priority 2021, published 2024).

molecular target: ATM (Homo sapiens (Human), UniProt Q13315); experiment: biochemical; assay type: biochemical; details: not given
From the text: Assay a): ATM Biochemical Potency
Data was collected by Caliper.

ATM, sequence (Q13315 whole entry, looked up): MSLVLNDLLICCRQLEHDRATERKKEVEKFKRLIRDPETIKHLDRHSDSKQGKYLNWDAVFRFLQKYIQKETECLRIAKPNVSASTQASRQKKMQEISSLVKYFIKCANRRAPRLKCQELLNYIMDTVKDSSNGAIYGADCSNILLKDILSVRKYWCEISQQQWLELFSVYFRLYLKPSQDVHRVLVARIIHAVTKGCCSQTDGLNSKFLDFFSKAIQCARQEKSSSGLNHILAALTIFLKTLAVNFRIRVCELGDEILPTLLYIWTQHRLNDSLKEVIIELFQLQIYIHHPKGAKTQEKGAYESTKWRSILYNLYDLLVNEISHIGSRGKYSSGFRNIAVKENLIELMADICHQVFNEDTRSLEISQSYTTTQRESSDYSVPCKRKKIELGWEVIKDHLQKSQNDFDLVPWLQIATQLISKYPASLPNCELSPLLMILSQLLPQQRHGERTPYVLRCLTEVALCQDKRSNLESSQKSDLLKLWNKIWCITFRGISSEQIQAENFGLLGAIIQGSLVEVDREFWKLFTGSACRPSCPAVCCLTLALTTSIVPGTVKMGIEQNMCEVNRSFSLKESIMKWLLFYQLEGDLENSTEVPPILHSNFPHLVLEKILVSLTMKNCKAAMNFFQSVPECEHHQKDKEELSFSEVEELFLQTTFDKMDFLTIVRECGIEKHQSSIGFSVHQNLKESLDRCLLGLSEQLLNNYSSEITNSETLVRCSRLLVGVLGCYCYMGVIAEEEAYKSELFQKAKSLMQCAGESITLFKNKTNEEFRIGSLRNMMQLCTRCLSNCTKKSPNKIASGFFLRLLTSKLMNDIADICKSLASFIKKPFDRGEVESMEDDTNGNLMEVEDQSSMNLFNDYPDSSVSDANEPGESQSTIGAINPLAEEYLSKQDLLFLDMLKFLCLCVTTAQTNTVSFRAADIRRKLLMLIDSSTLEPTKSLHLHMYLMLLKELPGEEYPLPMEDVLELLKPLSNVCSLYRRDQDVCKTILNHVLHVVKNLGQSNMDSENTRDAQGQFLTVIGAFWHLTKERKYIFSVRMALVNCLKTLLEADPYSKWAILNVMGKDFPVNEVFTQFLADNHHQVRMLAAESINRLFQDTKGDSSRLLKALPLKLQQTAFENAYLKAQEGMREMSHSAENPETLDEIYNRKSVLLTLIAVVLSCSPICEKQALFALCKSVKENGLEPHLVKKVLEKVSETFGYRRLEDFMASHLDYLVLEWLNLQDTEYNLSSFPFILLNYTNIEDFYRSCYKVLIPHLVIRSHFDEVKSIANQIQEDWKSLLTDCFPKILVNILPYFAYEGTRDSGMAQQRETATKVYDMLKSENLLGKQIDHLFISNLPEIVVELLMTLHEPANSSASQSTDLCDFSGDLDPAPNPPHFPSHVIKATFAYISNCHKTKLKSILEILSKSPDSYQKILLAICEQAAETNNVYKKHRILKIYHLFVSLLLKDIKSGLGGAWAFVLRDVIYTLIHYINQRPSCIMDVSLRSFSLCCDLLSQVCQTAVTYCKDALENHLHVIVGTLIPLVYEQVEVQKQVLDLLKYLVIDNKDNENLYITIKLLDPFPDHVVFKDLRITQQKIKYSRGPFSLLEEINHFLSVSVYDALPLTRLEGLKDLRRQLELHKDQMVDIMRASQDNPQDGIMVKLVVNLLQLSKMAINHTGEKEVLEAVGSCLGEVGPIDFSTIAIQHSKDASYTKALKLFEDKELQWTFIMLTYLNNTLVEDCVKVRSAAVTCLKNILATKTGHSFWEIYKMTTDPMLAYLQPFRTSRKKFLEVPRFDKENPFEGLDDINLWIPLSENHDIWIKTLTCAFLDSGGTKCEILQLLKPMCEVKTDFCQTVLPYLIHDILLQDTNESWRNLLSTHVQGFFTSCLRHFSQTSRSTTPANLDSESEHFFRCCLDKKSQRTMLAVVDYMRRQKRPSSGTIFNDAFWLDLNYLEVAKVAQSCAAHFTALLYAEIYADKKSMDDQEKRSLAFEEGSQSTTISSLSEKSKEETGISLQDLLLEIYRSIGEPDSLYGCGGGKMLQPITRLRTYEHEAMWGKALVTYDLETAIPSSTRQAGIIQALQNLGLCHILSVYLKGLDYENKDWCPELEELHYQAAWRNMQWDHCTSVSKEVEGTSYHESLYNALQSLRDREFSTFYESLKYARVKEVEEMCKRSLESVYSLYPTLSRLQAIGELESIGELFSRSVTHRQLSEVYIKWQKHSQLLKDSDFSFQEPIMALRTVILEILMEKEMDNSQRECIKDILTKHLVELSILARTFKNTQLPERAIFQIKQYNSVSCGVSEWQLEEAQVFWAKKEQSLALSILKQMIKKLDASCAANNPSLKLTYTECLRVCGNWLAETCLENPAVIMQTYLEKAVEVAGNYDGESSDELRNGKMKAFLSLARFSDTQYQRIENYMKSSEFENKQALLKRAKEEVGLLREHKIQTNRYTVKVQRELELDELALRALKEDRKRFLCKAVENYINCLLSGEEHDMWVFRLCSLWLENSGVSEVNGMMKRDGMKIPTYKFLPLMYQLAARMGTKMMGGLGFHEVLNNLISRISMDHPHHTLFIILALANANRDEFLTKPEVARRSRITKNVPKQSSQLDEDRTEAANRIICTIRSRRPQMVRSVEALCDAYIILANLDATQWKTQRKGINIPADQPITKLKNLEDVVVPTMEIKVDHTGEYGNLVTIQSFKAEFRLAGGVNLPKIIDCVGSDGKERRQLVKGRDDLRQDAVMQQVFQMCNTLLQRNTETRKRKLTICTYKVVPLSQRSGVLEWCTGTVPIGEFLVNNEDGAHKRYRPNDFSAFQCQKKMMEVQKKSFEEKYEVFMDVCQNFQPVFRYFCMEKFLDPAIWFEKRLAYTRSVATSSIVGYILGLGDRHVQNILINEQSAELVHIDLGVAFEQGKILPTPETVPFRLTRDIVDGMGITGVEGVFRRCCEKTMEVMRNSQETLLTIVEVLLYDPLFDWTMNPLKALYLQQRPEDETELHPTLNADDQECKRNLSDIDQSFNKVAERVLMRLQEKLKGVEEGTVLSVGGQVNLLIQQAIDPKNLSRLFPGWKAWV

SMILES | IC50 [nM]
CO[C@H]1C[C@H](n2c(=O)n(C)c3nnc4ccc(-c5ccc(COCCN6CCC7(CC7)C6)nc5)cc4c32)C1 [Example 159, 8-(6-((2-(5-azaspiro[2.4]heptan-5-yl)ethoxy)methyl)pyridin-3-yl)-1-(trans-3-methoxycyclobutyl)-3-methyl-1H-imidazo[4,5-c]cinnolin-2(3H)-one] | 20.6

same assay, conditions: read-out: ATM IC50

SMILES | IC50 [nM]
CC(C)n1c(=O)n(C)c2nnc3cc(F)c(-c4ccc([C@@H](C)OCCN5CCC(F)CC5)nc4)cc3c21 [Example 136, (R)-7-fluoro-8-(6-(1-(2-(4-fluoropiperidin-1-yl)ethoxy)ethyl)pyridin-3-yl)-1-isopropyl-3-methyl-1,3-dihydro-2H-imidazo[4,5-c]cinnolin-2-one] | 10
CO[C@H]1CCN(CCO[C@H](C)c2ccc(-c3cc4c(cc3F)nnc3c4n(C(C)C)c(=O)n3C)cn2)C1 [Example 138, 7-fluoro-1-isopropyl-8-(6-((R)-1-(2-((S)-3-methoxypyrrolidin-1-yl)ethoxy)ethyl)pyridin-3-yl)-3-methyl-1H-imidazo[4,5-c]cinnolin-2(3H)-one] | 14
CC(C)n1c(=O)n(C)c2nnc3cc(F)c(-c4ccc([C@@H](C)OCCN5CCC(C)(C)CC5)nc4)cc3c21 [Example 139, (R)-8-(6-(1-(2-(4,4-dimethylpiperidin-1-yl)ethoxy)ethyl)pyridin-3-yl)-7-fluoro-1-isopropyl-3-methyl-1H-imidazo[4,5-c]cinnolin-2(3H)-one] | 2.8
CC(C)n1c(=O)n(C)c2nnc3cc(F)c(-c4ccc([C@@H](C)OCCN5CCC(OC(F)(F)F)C5)nc4)cc3c21 (stereo partly drawn) [Example 141, 7-fluoro-1-isopropyl-3-methyl-8-(6-((1R)-1-(2-(3-(trifluoromethoxy)pyrrolidin-1-yl)ethoxy)ethyl)pyridin-3-yl)-1H-imidazo[4,5-c]cinnolin-2(3H)-one] | 6.3
CC(C)n1c(=O)n(C)c2nnc3cc(F)c(-c4ccc([C@@H](C)OCCN5CC6CC6C5)nc4)cc3c21 (stereo partly drawn) [Example 143, 8-(6-((1R)-1-(2-(3-azabicyclo[3.1.0]hexan-3-yl)ethoxy)ethyl)pyridin-3-yl)-7-fluoro-1-isopropyl-3-methyl-1H-imidazo[4,5-c]cinnolin-2(3H)-one] | 11
CC(C)n1c(=O)n(C)c2nnc3cc(F)c(-c4ccc([C@@H](C)OCCN5CCC(C)(C#N)C5)nc4)cc3c21 (stereo partly drawn) [Example 147, 1-(2-((R)-1-(5-(7-fluoro-1-isopropyl-3-methyl-2-oxo-2,3-dihydro-1H-imidazo[4,5-c]cinnolin-8-yl)pyridin-2-yl)ethoxy)ethyl)-3-methylpyrrolidine-3-carbonitrile] | 23
C[C@@H](OCCN1CCC(C)(C)CC1)c1ccc(-c2cc3c(cc2F)nnc2c3n(C3CCOCC3)c(=O)n2C)cn1 [Example 149, (R)-8-(6-(1-(2-(4,4-dimethylpiperidin-1-yl)ethoxy)ethyl)pyridin-3-yl)-7-fluoro-3-methyl-1-(tetrahydro-2H-pyran-4-yl)-1H-imidazo[4,5-c]cinnolin-2(3H)-one] | 15
C[C@@H](OCCN1CCC2(CC1)CC2)c1ccc(-c2cc3c(cc2F)nnc2c3n(C3CCOCC3)c(=O)n2C)cn1 [Example 154, (R)-8-(6-(1-(2-(6-azaspiro[2.5]octan-6-yl)ethoxy)ethyl)pyridin-3-yl)-7-fluoro-3-methyl-1-(tetrahydro-2H-pyran-4-yl)-1H-imidazo[4,5-c]cinnolin-2(3H)-one] | 3.6
C[C@@H](OCCN1CC[C@@H](OC(F)F)C1)c1ccc(-c2cc3c(cc2F)nnc2c3n(C3CCOCC3)c(=O)n2C)cn1 [Example 155, 8-(6-((R)-1-(2-((R)-3-(difluoromethoxy)pyrrolidin-1-yl)ethoxy)ethyl)pyridin-3-yl)-7-fluoro-3-methyl-1-(tetrahydro-2H-pyran-4-yl)-1H-imidazo[4,5-c]cinnolin-2(3H)-one] | 11
C[C@@H](OCCN1CCC2(CCC2)CC1)c1ccc(-c2cc3c(cc2F)nnc2c3n(C3CCOCC3)c(=O)n2C)cn1 [Example 156, (R)-8-(6-(1-(2-(7-azaspiro[3.5]nonan-7-yl)ethoxy)ethyl)pyridin-3-yl)-7-fluoro-3-methyl-1-(tetrahydro-2H-pyran-4-yl)-1H-imidazo[4,5-c]cinnolin-2(3H)-one] | 6
CO[C@H]1C[C@H](n2c(=O)n(C)c3nnc4ccc(-c5ccc([C@@H](C)OCCN6CCC7(CC7)C6)nc5)cc4c32)C1 [Example 161, 8-(6-((R)-1-(2-(5-azaspiro[2.4]heptan-5-yl)ethoxy)ethyl)pyridin-3-yl)-1-(trans-3-methoxycyclobutyl)-3-methyl-1H-imidazo[4,5-c]cinnolin-2(3H)-one] | 3.4
CO[C@@H]1CCN(CCO[C@H](C)c2ccc(-c3ccc4nnc5c(c4c3)n([C@H]3C[C@H](OC)C3)c(=O)n5C)cn2)C1 [Example 163, 1-(trans-3-methoxycyclobutyl)-8-(6-((R)-1-(2-((R)-3-methoxypyrrolidin-1-yl)ethoxy)ethyl)pyridin-3-yl)-3-methyl-1H-imidazo[4,5-c]cinnolin-2(3H)-one] | 7.9
CO[C@H]1C[C@H](n2c(=O)n(C)c3nnc4ccc(-c5ccc([C@@H](C)OCCN6CCC7(CC6)CC7)nc5)cc4c32)C1 [Example 164, 8-(6-((R)-1-(2-(6-azaspiro[2.5]octan-6-yl)ethoxy)ethyl)pyridin-3-yl)-1-(trans-3-methoxycyclobutyl)-3-methyl-1H-imidazo[4,5-c]cinnolin-2(3H)-one] | 2.2
CO[C@H]1C[C@H](n2c(=O)n(C)c3nnc4ccc(-c5ccc(COCCN(C)C)nc5)cc4c32)C1 [Example 165, 8-(6-((2-(dimethylamino)ethoxy)methyl)pyridin-3-yl)-1-(trans-3-methoxycyclobutyl)-3-methyl-1H-imidazo[4,5-c]cinnolin-2(3H)-one] | 101
CO[C@H]1C[C@H](n2c(=O)n(C)c3nnc4ccc(-c5ccc(COCCN6CCCC6)nc5)cc4c32)C1 [Example 166, 1-(trans-3-methoxycyclobutyl)-3-methyl-8-(6-((2-(pyrrolidin-1-yl)ethoxy)methyl)pyridin-3-yl)-1H-imidazo[4,5-c]cinnolin-2(3H)-one] | 58
CO[C@H]1C[C@H](n2c(=O)n(C)c3nnc4ccc(-c5ccc(COCCN6CCC(F)CC6)nc5)cc4c32)C1 [Example 168, 8-(6-((2-(4-fluoropiperidin-1-yl)ethoxy)methyl)pyridin-3-yl)-1-(trans-3-methoxycyclobutyl)-3-methyl-1H-imidazo[4,5-c]cinnolin-2(3H)-one] | 48
CO[C@H]1C[C@H](n2c(=O)n(C)c3nnc4ccc(-c5ccc(COCCN6CC7CC7C6)nc5)cc4c32)C1 (stereo partly drawn) [Example 169, 8-(6-((2-(3-azabicyclo[3.1.0]hexan-3-yl)ethoxy)methyl)pyridin-3-yl)-1-(trans-3-methoxycyclobutyl)-3-methyl-1H-imidazo[4,5-c]cinnolin-2(3H)-one] | 42
CO[C@H]1C[C@@H](n2c(=O)n(C)c3nnc4ccc(-c5ccc([C@@H](C)OCCN6CCC7(CC6)CC7)nc5)cc4c32)C1 [Example 170, 8-(6-((R)-1-(2-(6-azaspiro[2.5]octan-6-yl)ethoxy)ethyl)pyridin-3-yl)-1-(cis-3-methoxycyclobutyl)-3-methyl-1H-imidazo[4,5-c]cinnolin-2(3H)-one] | 1.6
CO[C@H]1C[C@@H](n2c(=O)n(C)c3nnc4ccc(-c5ccc([C@@H](C)OCCN6CCC7(CC7)C6)nc5)cc4c32)C1 [Example 171, 8-(6-((R)-1-(2-(5-azaspiro[2.4]heptan-5-yl)ethoxy)ethyl)pyridin-3-yl)-1-(cis-3-methoxycyclobutyl)-3-methyl-1H-imidazo[4,5-c]cinnolin-2(3H)-one] | 2.5
CO[C@H]1C[C@@H](n2c(=O)n(C)c3nnc4ccc(-c5ccc(COCCN6CCCC6)nc5)cc4c32)C1 [Example 172, 1-(cis-3-methoxycyclobutyl)-3-methyl-8-(6-((2-(pyrrolidin-1-yl)ethoxy)methyl)pyridin-3-yl)-1H-imidazo[4,5-c]cinnolin-2(3H)-one] | 21
CO[C@H]1C[C@@H](n2c(=O)n(C)c3nnc4ccc(-c5ccc(COCCN6CCCCC6)nc5)cc4c32)C1 [Example 173, 1-(cis-3-methoxycyclobutyl)-3-methyl-8-(6-((2-(piperidin-1-yl)ethoxy)methyl)pyridin-3-yl)-1H-imidazo[4,5-c]cinnolin-2(3H)-one] | 32
CO[C@H]1C[C@@H](n2c(=O)n(C)c3nnc4ccc(-c5ccc(COCCN(C)C)nc5)cc4c32)C1 [Example 176, 8-(6-((2-(dimethylamino)ethoxy)methyl)pyridin-3-yl)-1-(cis-3-methoxycyclobutyl)-3-methyl-1H-imidazo[4,5-c]cinnolin-2(3H)-one] | 65
Cn1c(=O)n(C2COC2)c2c3cc(-c4ccc(COCCN5CCC(F)CC5)nc4)ccc3nnc21 [Example 179, 8-(6-((2-(4-fluoropiperidin-1-yl)ethoxy)methyl)pyridin-3-yl)-3-methyl-1-(oxetan-3-yl)-1H-imidazo[4,5-c]cinnolin-2(3H)-one] | 729
Cn1c(=O)n([C@H]2CCCOC2)c2c3cc(-c4ccc(COCCN5CCC(F)CC5)nc4)ccc3nnc21 [Example 182, (S)-8-(6-((2-(4-fluoropiperidin-1-yl)ethoxy)methyl)pyridin-3-yl)-3-methyl-1-(tetrahydro-2H-pyran-3-yl)-1H-imidazo[4,5-c]cinnolin-2(3H)-one] | 21
Cn1c(=O)n([C@H]2CCCOC2)c2c3cc(-c4ccc(COCCN5CC6CC6C5)nc4)ccc3nnc21 (stereo partly drawn) [Example 183, 8-(6-((2-(3-azabicyclo[3.1.0]hexan-3-yl)ethoxy)methyl)pyridin-3-yl)-3-methyl-1-((S)-tetrahydro-2H-pyran-3-yl)-1H-imidazo[4,5-c]cinnolin-2(3H)-one] | 20
CC(C)n1c(=O)n(C)c2nnc3ccc(-c4ccc([C@@H](C)OCC(=O)O)nc4)cc3c21 [Example 216, (R)-2-(1-(5-(1-isopropyl-3-methyl-2-oxo-2,3-dihydro-1H-imidazo[4,5-c]cinnolin-8-yl)pyridin-2-yl)ethoxy)acetic acid] | 339
CC(C)n1c(=O)n(C)c2nnc3ccc(-c4ccc(C(C)(C)OCCN5CC6CC6C5)nc4)cc3c21 (stereo not shown) [Example 217, 8-(6-(2-(2-(3-azabicyclo[3.1.0]hexan-3-yl)ethoxy)propan-2-yl)pyridin-3-yl)-1-isopropyl-3-methyl-1H-imidazo[4,5-c]cinnolin-2(3H)-one] | 72
